Results on 24 molecules are retold here after ChEMBL document CHEMBL1201862, “PubChem BioAssay data set” (2004).

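Where inhibition never reached the appropriate level, the endpoint shown equals the highest concentration tested. Otherwise, values were interpolated linearly from a five-concentration, 48-hour dose response in 96-well plates. Here, GI50 denotes the concentration required for 50% inhibition of growth.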 Active and inactive are the calls of the source. No stated cut-off is given here; in the data, active = GI50 up to about 1.1 µM and inactive = higher. Some results are limits rather than exact numbers.

Some test systems named below: DMS-114; DMS-273; DLD-1; SNB-78; HOP-18; KM-20L2; XF498; M19-MEL; RXF 631.
Experiment in all cases: DTP human tumour cell line panel, 48 h

In general, GI50 refers to the concentration that inhibits growth by half. `N=C(N)NS(=O)(=O)c1ccc(Nc2c3ccccc3nc3c(C(=O)N4CCN(CCO)CC4)cccc23)cc1`: the GI50 in the assay on DMS-114, in the assay with DMS-273, in the assay on DLD-1, in the assay on SNB-78, with HOP-18 and in the assay with KM-20L2 was > 100 µM (inactive) each time. The GI50 with XF498 and with M19-MEL was > 100 µM (inactive) each time.
`COC(=O)CC(C(C(=O)OCc1ccccc1)C(C)O)N1C(=O)OC(c2ccccc2)C1c1ccccc1` (configuration not stated): the GI50 in the assay on RXF 631 is > 100 µM (inactive); in the assay on DMS-114, 81.5 µM (inactive); with DMS-273, > 100 µM (inactive); in the assay on DLD-1, > 100 µM (inactive); with KM-20L2, > 100 µM (inactive); in the assay with XF498 it was 24.9 µM (inactive). In the assay with M19-MEL, the GI50 is > 100 µM (inactive).
Turning to `COc1ccc(NC(=O)CC(=O)N/N=C/c2ccc(N(CCC#N)S(=O)(=O)c3ccccc3)cc2)cc1`, the GI50 in the assay with RXF 631, in the assay with DMS-114, in the assay with DLD-1, in the assay on SNB-78, in the assay with HOP-18 and with KM-20L2 was > 100 µM (inactive) in each case. Besides, the GI50 in the assay with XF498 and with M19-MEL was > 100 µM (inactive) in each case.
Take `CC[C@@]1(O)C[C@H](OC2CC(N(C)C)C(OC3CC(O)C(OC4CCC(=O)C(C)O4)C(C)O3)C(C)O2)c2c(cc3c(c2O)C(=O)c2c(O)ccc(O)c2C3=O)[C@H]1C(=O)OC` (some centres not stated): the GI50 in the assay with DMS-273 was < 1e-05 µM (active); in the assay with DLD-1 it was < 1e-05 µM (active); in the assay with HOP-18, 0.0128 µM (active).
As to `O=C(Nc1cc(Cl)c(Cl)cc1Cl)C(=O)C(C(=O)c1ccc2ccccc2c1)C1OC(=O)c2ccccc21` (configuration not stated), the GI50 in the assay with DMS-114 was 9.2 µM (inactive); with DLD-1, 14.4 µM (inactive); with SNB-78 it was 8.43 µM (inactive); in the assay on M19-MEL, 13.6 µM (inactive).
Consider `COc1ccccc1NC(=O)c1nc2ccc([N+](=O)[O-])cc2nc1C`, for which the GI50 in the assay on DMS-114 is > 100 µM (inactive); with DMS-273, > 100 µM (inactive); with DLD-1, > 100 µM (inactive); with HOP-18, 0.238 µM (active); with KM-20L2, > 100 µM (inactive); in the assay with XF498 it was 21 µM (inactive). For the same molecule, in the assay on M19-MEL, the GI50 is > 100 µM (inactive).
With `COc1ccc2oc(C(=O)O)c3c2c1CCC3CCC(=O)O` (configuration not stated), the GI50 in the assay with RXF 631, with DMS-114, in the assay on DMS-273, in the assay on DLD-1, with SNB-78 and in the assay with XF498 was > 100 µM (inactive) throughout. Further, the GI50 in the assay on M19-MEL was > 100 µM (inactive).
With `COc1ccc(C(=O)C(c2ccc(OC)cc2)C2C(=O)Oc3ccccc32)cc1` (configuration not stated), the GI50 with RXF 631 was > 10 µM (inactive); with DMS-114 it was > 10 µM (inactive); with DMS-273 it was > 10 µM (inactive); with DLD-1 it was > 10 µM (inactive); with SNB-78, 67.9 µM (inactive); in the assay on HOP-18, 59.4 µM (inactive). For the same molecule, the GI50 in the assay with KM-20L2, in the assay on XF498 and with M19-MEL was > 10 µM (inactive) in each case.
Turning to `O=C1CNNC(Cn2nc(-c3ccccc3)c3ccccc3c2=O)=N1`, the GI50 with DMS-114, in the assay with DMS-273, in the assay on DLD-1, with SNB-78, in the assay on HOP-18 and with M19-MEL was > 100 µM (inactive) each time.
`CCCCNC(=O)C1C2CCC(O2)C1C(=O)O` (configuration not stated): the GI50 with RXF 631 is 32.5 µM (inactive); with DMS-114 it was 13.9 µM (inactive); with DMS-273, 32.4 µM (inactive); with DLD-1 it was 20.2 µM (inactive); with SNB-78 it was 32.9 µM (inactive); in the assay with HOP-18, 30.4 µM (inactive). In addition, the results for the GI50 in the assay on KM-20L2, in the assay on XF498 and in the assay with M19-MEL were 6.24 µM (inactive), 3.41 µM (inactive) and 19.3 µM (inactive), respectively.
Consider `COc1ccccc1NC(=O)C(=O)C(c1cnc2ccc([N+](=O)[O-])cc2n1)[N+](=O)[O-]` (configuration not stated), for which the GI50 with RXF 631 is 39.2 µM (inactive); in the assay on DMS-114 it was 17.9 µM (inactive); with DMS-273, 64 µM (inactive); with DLD-1, > 100 µM (inactive); in the assay on SNB-78 it was > 100 µM (inactive); in the assay on HOP-18, > 100 µM (inactive). Moreover, the GI50 with KM-20L2, in the assay on XF498 and with M19-MEL was > 100 µM (inactive) each time.
Take `OC1C2C=CCC1CCC2` (configuration not stated): the GI50 in the assay with RXF 631, with DMS-114, in the assay with DMS-273, in the assay with DLD-1, in the assay on SNB-78 and in the assay with HOP-18 was > 100 µM (inactive) throughout. For the same molecule, the GI50 in the assay with KM-20L2, in the assay on XF498 and in the assay on M19-MEL was > 100 µM (inactive) each time.
Take `COC(=O)CC(=O)C[P+](c1ccccc1)(c1ccccc1)c1ccccc1`: the GI50 was > 218 µM (inactive) in the assay on RXF 631; > 218 µM (inactive) in the assay with DMS-114; > 218 µM (inactive) in the assay with DMS-273; 194 µM (inactive) in the assay on DLD-1; 39.8 µM (inactive) in the assay on HOP-18; > 218 µM (inactive) with KM-20L2. For the same molecule, the GI50 in the assay on XF498 was 45.4 µM (inactive); in the assay on M19-MEL, 209 µM (inactive).
For the molecule `Cc1cccc2c(=O)c([Se]c3coc4c(C)cccc4c3=O)coc12`, the GI50 with DMS-114 is 17.7 µM (inactive); in the assay on DMS-273, 21.4 µM (inactive); in the assay with DLD-1 it was 20.8 µM (inactive); in the assay on SNB-78, 16.3 µM (inactive); in the assay on HOP-18, 19 µM (inactive); in the assay with KM-20L2 it was 21.5 µM (inactive). Moreover, the GI50 is 19.7 µM (inactive) in the assay on XF498 and 16.5 µM (inactive) with M19-MEL.
On to `CCOC(=O)NN1C(=O)C(=P(c2ccccc2)(c2ccccc2)c2ccccc2)C(C(=O)OCC)=C1C`, for which the GI50 with RXF 631, in the assay with DMS-273, with DLD-1, in the assay on SNB-78, with KM-20L2 and in the assay on XF498 was > 100 µM (inactive) in each case. In addition, the GI50 in the assay on M19-MEL is > 100 µM (inactive).
Take `CCCCCCCCCCC/C(=N/O)c1ccc(O)c2ncccc12`: the GI50 with DMS-114 was 2 µM (inactive); in the assay with DMS-273, 1.51 µM (inactive); in the assay on DLD-1, 2.75 µM (inactive); in the assay on SNB-78, 4.55 µM (inactive); in the assay on HOP-18 it was 3.36 µM (inactive); with KM-20L2, 3.85 µM (inactive). In addition, the GI50 in the assay on M19-MEL was 2.11 µM (inactive).
On to `COc1ccc2nc(C)cc(NCCCCCCCCCNc3cc(C)nc4ccc(OC)cc34)c2c1`, for which the GI50 was 1.15 µM (inactive) in the assay on DMS-114; 0.931 µM (active) in the assay with DMS-273; 2.31 µM (inactive) with DLD-1; 1.8 µM (inactive) in the assay on SNB-78; 0.946 µM (active) with KM-20L2; 2.21 µM (inactive) in the assay with XF498. For the same molecule, the GI50 in the assay with M19-MEL is 14.6 µM (inactive).
On to `O=C1c2ccccc2C2(O)Oc3cccc(O)c3C12O` (configuration not stated), for which the GI50 with RXF 631, in the assay on DMS-114, in the assay on DMS-273, in the assay on DLD-1, in the assay with SNB-78 and with HOP-18 was > 100 µM (inactive) in each case. Moreover, the GI50 in the assay with KM-20L2 and with M19-MEL was > 100 µM (inactive) each time.
`COc1ccc2nc3cc(Cl)ccc3c(NCCC(=O)OCC(O)C(O)C(O[C@H](C)C(=O)NC(C)C(=O)NC(CCC(N)=O)C(=O)OCc3ccccc3)C(C=O)NC(C)=O)c2c1` (some centres not stated): the GI50 in the assay on RXF 631 was 19.6 µM (inactive); with DMS-273, 14.2 µM (inactive); in the assay on DLD-1, 17.4 µM (inactive); in the assay on SNB-78, 32.5 µM (inactive); in the assay with KM-20L2, 17.2 µM (inactive); in the assay on XF498 it was 18.5 µM (inactive). Besides, in the assay on M19-MEL, the GI50 is 18 µM (inactive).
In the case of `O=C(CSc1c2ccccc2nc2ccccc12)Nc1ccccc1-c1ccccc1NC(=O)CSc1c2ccccc2nc2ccccc12`, the GI50 with DMS-114 is 15 µM (inactive); with DMS-273, 32.2 µM (inactive); in the assay with DLD-1 it was 13.9 µM (inactive); in the assay on SNB-78, 27.6 µM (inactive); with HOP-18, 79.1 µM (inactive); in the assay on KM-20L2, 31.3 µM (inactive). Further, the GI50 with XF498 is 19.1 µM (inactive); in the assay on M19-MEL, 23.1 µM (inactive).
In the case of `Cc1cccc(C(C)C)c1NC(=O)CC1C(=O)Nc2ccccc2S1(=O)=O` (configuration not stated), the GI50 in the assay on RXF 631 is 13.4 µM (inactive); with DMS-114, 13 µM (inactive); in the assay on DMS-273, 6.03 µM (inactive); in the assay with DLD-1 it was 9.25 µM (inactive); in the assay on SNB-78, 17.7 µM (inactive); with HOP-18, 26.4 µM (inactive). For the same molecule, the GI50 was 18.1 µM (inactive) with KM-20L2, 27.6 µM (inactive) with XF498 and 18.6 µM (inactive) in the assay with M19-MEL.
As to `O=C(Cc1ccccc1)Oc1ccc2c(-c3ccccc3)c(C(=O)Nc3ccc(Cl)cc3)c(=O)oc2c1`, the GI50 with DMS-114, in the assay on DMS-273, in the assay with DLD-1, in the assay with SNB-78, in the assay with KM-20L2 and with XF498 was > 100 µM (inactive) each time. The GI50 in the assay with M19-MEL is > 100 µM (inactive).
On to `Cc1ccccc1Nc1nc2c(s1)C(=O)c1ccccc1C2=O`, for which the GI50 is 2 µM (inactive) in the assay on DMS-114; 8.07 µM (inactive) with DMS-273; 5.73 µM (inactive) in the assay with DLD-1; 12.8 µM (inactive) in the assay on SNB-78; 12.4 µM (inactive) in the assay with HOP-18; 28.6 µM (inactive) in the assay on KM-20L2. The GI50 in the assay on XF498 is 15.6 µM (inactive); with M19-MEL, 1.95 µM (inactive).
With `COC(=O)C1=C(O)C(O)=C(C(=O)OC)C1`, the GI50 in the assay on DMS-114, in the assay with DMS-273, with DLD-1, in the assay on SNB-78, with HOP-18 and with KM-20L2 was > 100 µM (inactive) throughout. The GI50 in the assay with M19-MEL was > 100 µM (inactive).
